Columns and labels:
[1] = in ceteareth-25, ceteareth-6, PEG-8-distearate, PEG-8-stearate, PEG-660-OH-stearate, PEG-4000, polyoxyethylene-10, glycerol monostearate S/E, propylene glycol dicaprylate, cetearyl octanoate, polyglycerol-3-diolate, C18-C36 triglycerides, Gamma cyclodextrin, soybean lecithin, cholesterol, stearic acid; cited from earlier work
[2] = Stability of ivermectin in various excipients; assay type: physicochemical; conditions: for T 1 month 40° C. content / T 1 month Tambient content / T 3 months 40° C. content / T 3 months Tambient content: T0 in mg/g; for T 1 month 40° C. (% in brackets) / T 1 month Tambient (% in brackets) / T 3 months 40° C. (% in brackets) / T 3 months Tambient (% in brackets): relative to T0
Text: (§1) There are numerous excipients used in the formulation of emulsions or liposomes which result in degradation of ivermectin. The Table below presents the results of tests of stability and solubility of ivermectin in various excipients: […]

[3] = Solubility of ivermectin in various excipients; assay type: physicochemical
Text: as §1

[4] = cited from earlier work
[5] = in Labrafac Hydro WL1219 (caprylic/capric triglyceride PEG-4 esters)
[6] = in Labrafac Hydro WL1219, 1 month
[7] = in Lipoid S75-3 + benzyl alcohol, 1 month
[8] = in Lipoid S75-3 + benzyl alcohol
[9] = in Mygliol 812 (medium-chain triglycerides of caprylic and capric acids)
[10] = in Ph90H + benzyl alcohol, 1 month
[11] = in Solutol HS15 (PEG-15 hydroxystearate)

ivermectin
Stability in lipophilic excipients (in words) [1]: degradation | Degradation by hydrogenated lecithins (in words) ([2]; hydrogenated lecithins, studies of Example 1): do not degrade | T 1 month 40° C. content ([2]; in Benzyl alcohol, 1 month): 9.7 | T 1 month 40° C. (% in brackets) ([2]; in Benzyl alcohol, 1 month): (98%) | T 1 month Tambient content ([2]; in Benzyl alcohol, 1 month): 9.8 | T 1 month Tambient (% in brackets) ([2]; in Benzyl alcohol, 1 month): (99%) | T0 content ([2]; in Benzyl alcohol): 9.9 mg/g | Stability (in words) ([2]; in Crodamol DA): Stable over 1 month | T0 content [2, 5]: 9.0 mg/g | T 1 month 40° C. content [2, 6]: 6.7 | T 1 month 40° C. (% in brackets) [2, 6]: (75%) | T 1 month Tambient content [2, 6]: 8.5 | T 1 month Tambient (% in brackets) [2, 6]: (95%) | T 3 months 40° C. content ([2]; in Labrafac Hydro WL1219): 4.2 | T 3 months 40° C. (% in brackets) ([2]; in Labrafac Hydro WL1219): (47%) | T 3 months Tambient content ([2]; in Labrafac Hydro WL1219): 6.3 | T 3 months Tambient (% in brackets) ([2]; in Labrafac Hydro WL1219): (70%) | T0 content ([2]; in Labrasol (PEG-8 caprylic/capric glycerides)): 8.1 mg/g | T 1 month 40° C. content ([2]; in Labrasol, 1 month): 7.9 | T 1 month 40° C. (% in brackets) ([2]; in Labrasol, 1 month): (98%) | T 1 month Tambient content ([2]; in Labrasol, 1 month): 8.1 | T 1 month Tambient (% in brackets) ([2]; in Labrasol, 1 month): (100%) | T 3 months 40° C. content ([2]; in Labrasol): 5.6 | T 3 months 40° C. (% in brackets) ([2]; in Labrasol): (69%) | T 3 months Tambient content ([2]; in Labrasol): 8.1 | T 3 months Tambient (% in brackets) ([2]; in Labrasol): (100%) | T 1 month 40° C. content [2, 7]: 9.5 | T 1 month 40° C. (% in brackets) [2, 7]: (101%) | T 1 month Tambient content [2, 7]: 9.5 | T 1 month Tambient (% in brackets) [2, 7]: (101%) | T 3 months 40° C. content [2, 8]: 9.7 | T 3 months 40° C. (% in brackets) [2, 8]: (103%) | T 3 months Tambient content [2, 8]: 9.2 | T 3 months Tambient (% in brackets) [2, 8]: (98%) | T0 content [2, 8]: 9.4 mg/g | T 1 month 40° C. content ([2]; in Miglyol 812, 1 month): 8.2 | T 1 month 40° C. (% in brackets) ([2]; in Miglyol 812, 1 month): (94%) | T 1 month Tambient content ([2]; in Miglyol 812, 1 month): 8.3 | T 1 month Tambient (% in brackets) ([2]; in Miglyol 812, 1 month): (95%) | T 3 months 40° C. content ([2]; in Miglyol 812): 8.4 | T 3 months 40° C. (% in brackets) ([2]; in Miglyol 812): (96%) | T 3 months Tambient content ([2]; in Miglyol 812): 8.3 | T 3 months Tambient (% in brackets) ([2]; in Miglyol 812): (96%) | T0 content ([2]; in Miglyol 812): 8.7 mg/g | Stability (in words) [2, 9]: not perfectly stable | T0 content ([2]; in Ph90H (Phospholipon 90H) + benzyl alcohol): 9.25 mg/g | T 1 month 40° C. content [2, 10]: 9.5 | T 1 month 40° C. (% in brackets) [2, 10]: (103%) | T 1 month Tambient content [2, 10]: 9.7 | T 1 month Tambient (% in brackets) [2, 10]: (105%) | T0 content [2, 11]: 9.8 mg/g | degradation at 1 month ([2]; in Solutol HS15, 1 month): 28% | T 1 month 40° C. content ([2]; in Solutol HS15, 1 month): 7.1 | T 1 month 40° C. (% in brackets) ([2]; in Solutol HS15, 1 month): (72%) | T 1 month Tambient content ([2]; in Solutol HS15, 1 month): 9.4 | T 1 month Tambient (% in brackets) ([2]; in Solutol HS15, 1 month): (95%) | Solubility max ([3]; in Benzyl alcohol): 32.8 mg/g | Solubility max ([3]; in Benzyl benzoate): 44.2 mg/g | Solubility max ([3]; in Crodamol DA): 94.2 mg/g | Solubility max [3, 5]: 70 mg/g | Solubility max ([3]; in Miglyol 812): 17.9 mg/g | Solubility (in words) [3, 9]: relatively low solubility | Solubility max [3, 11]: 10.8 mg/g | Stability in a hydrophilic medium (in words) ([4]; hydrophilic medium): degraded | solubility in water ([4]; water): 5 µg/mL
